Measurements: patent US20050154036A1, “Methods of using zonisamide as an adjunctive therapy for partial seizures” (Eisai Co., Ltd., priority 2004, published 2005)

What was measured:
[1] = cited from earlier work; for hyperammonemia as adverse effect: literature
[2] = cited from earlier work
carbonic anhydrase = details: fraction of the inhibition by acetazolamide; cited from earlier work
rat hippocampal slices = details: 10-30 μg/mL; cited from earlier work
[3] = system: GABA/benzodiazepine receptor ionophore complex; details: in vitro; cited from earlier work
T-type Ca2+ currents = details: in vitro; cited from earlier work
[4] = human, in vivo
Text: The pharmacovigilance data that were collected, reviewed and analyzed provided the following information in respect of the incidence of hyperammonemia. A total of 4 cases fulfilled the criteria of potential hyperammonemia cases. These cases were reviewed in detail for evaluation of possible safety signals. Two US cases were reported as either high ammonia levels or increased ammonia. Two Japanese cases were reported as hyperammonemia.
Of these, two (2) cases (both ZON1000262 and ZON1000346) had strong confounding factors and seem to be unrelated to zonisamide, but the possibility of zonisamide involvement cannot be completely excluded. The two cases of hyperammonemia originated from Japan and both involved adult patients. Both cases were serious and described as life-threatening. […]
Estimates of exposure, based upon retail and mail order prescriptions, indicate that the number of unique patients taking zonisamide capsules in the U.S. is about 37,276 (total prescriptions per year/average number of prescriptions per patient per year less a calculated percentage decrease based on estimated annual dropouts) in the time between approval in 2000 and December 2002. […] Similarly, the incidences of NMS estimated herein are unlikely to be higher than calculated. Based on the exposure data and number of hyperammonemia cases, the incidence of hyperammonemia is calculated to be about […].

[5] = system: cultured mouse spinal cord neurons; details: 10-30 μg/mL; cited from earlier work
[6] = system: dopaminergic and serotonergic neurotransmission; details: in vivo microdialysis; cited from earlier work
sodium channels = details: in vitro; cited from earlier work

Row | SMILES | hyperammonemia as adverse effect [1] | cases of hyperammonemia associated with the drug ([1]; since 1979, O'Neil et al. 2002) | hepatic enzyme induction ([2]; in vivo) | time required to achieve steady-state levels ([2]; upon reaching a stable dose or following dosage adjustment) | carbonic anhydrase inhibition compared to acetazolamide (carbonic anhydrase) | neuronal or glial uptake of [3H]-GABA (rat hippocampal slices) | binding to the GABA/benzodiazepine receptor ionophore complex [3] | changes in chloride flux [3] | effect on voltage-dependent, transient inward currents (T-type Ca2+ currents) (T-type Ca2+ currents) | cases fulfilling the criteria of potential hyperammonemia cases [4] [cases] | incidence of hyperammonemia [4] | postsynaptic GABA or glutamate responses [5] | synaptically-driven electrical activity [5] | dopaminergic and serotonergic neurotransmission [6] | effect on sodium channels (sodium channels)
1 | NC(=O)N1c2ccccc2C=Cc2ccccc21 [carbamazepine] | known to cause hyperammonemia | – | – | – | – | – | – | – | – | – | – | – | – | – | –
2 | CCCC(CCC)C(=O)O [valproate] | known to cause hyperammonemia | more than 30 cases | – | – | – | – | – | – | – | – | – | – | – | – | –
3 | NS(=O)(=O)Cc1noc2ccccc12 [zonisamide, 1,2-benzisoxazole-3-methanesulfonamide] | – | – | not known to be a hepatic enzyme inducer | up to two weeks | 1/50 | without affecting | binds to the GABA/benzodiazepine receptor ionophore complex in an allosteric fashion | does not produce changes in chloride flux | reduces | 4 | about 1:1,222,453 | without affecting | suppresses | facilitates | blocks sodium channels
